According to patent publication US20100272680A1, “Piperidinyl Cyclic Amido Antiviral Agents” (priority 2009, published 2010):
pEC50: −log10 of the molar value.

Key:
HCV Genotype 1A Replicon = assay: Replicon assay, genotype 1a subgenomic replicon, luciferase readout; format: cell-based; conditions: Hepatitis C virus, 48 h, Table 3; luciferase activity after 48 hours
Method: (§1) Compounds were assayed for activity against HCV using the genotype 1a and 1b subgenomic replicon model systems. Stable cell lines bearing the genotype 1a and 1b replicons were used for screening of compounds. Both replicons are bicistonic and contain the firefly luciferase gene. The ET cell line is stably transfected with RNA transcripts harboring a I389luc-ubi-neo/NS3-3′/ET replicon with firefly luciferase-ubiquitin-neomycin phosphotransferase fusion protein and EMCV-IRES driven NS3-5B polyprotein containing the cell culture adaptive mutations (E1202G; T12801; K1846T) (Krieger at al, 2001 and unpublished). The genotype 1a replicon is a stable cell line licensed from Apath LLC, modified to contain the firefly luciferase gene. The cells were grown in DMEM, supplemented with 10% fetal calf serum, 2 mM Glutamine, Penicillin (100 IU/mL)/Streptomycin (100 μg/mL), 1× nonessential amino acids, and 250-500 μg/mL G418 (“Geneticin”). They were all available through Life Technologies (Bethesda, Md.). The cells were plated at 0.5×10^4 cells/well in 384 well plates containing compounds. The final concentration of compounds ranged between 0.03 μM to 50 μm and the final DMSO concentration of 0.5-1%.
(§2) Luciferase activity was measured 48 hours later by adding a Steady glo (Promega, Madison, Wis.). Percent inhibition of replication data was plotted relative to no compound control. Under the same condition, cytotoxicity of the compounds was determined using cell titer glo (Promega, Madison, Wis). IC50s were determined from a 10 point dose response curve using 3-4-fold serial dilution for each compound, which spans a concentration range >1000 fold. BioAssay determines the level of inhibition for each compound by normalizing cross-talk corrected plate values against the negative […] controls to determine Percent Inhibition:
(§3) These normalized values are exported to EC50 where they are plotted against the molar compound concentrations using the standard four parameter logistic equation: […]
(§4) Some EC50 measurements were repeated a second time and for both 1A and 1B genotypes after those reported in Table 2 for compounds 101-108 and the repeated data was reported in Table 3.

HCV Genotype 1B Replicon = assay: Replicon assay, genotype 1b subgenomic replicon (ET cell line), luciferase readout; format: cell-based; conditions: Hepatitis C virus, 48 h, Table 3; luciferase activity after 48 hours
Method: as §1, §2, §3, §4

Row | SMILES | pEC50 (HCV Genotype 1A Replicon) | pEC50 (HCV Genotype 1B Replicon)
1 | O=C1CN(C(=O)c2nc3c(C(F)(F)F)cc(C4CC4)cn3c2Cl)CC[C@@H]1N1CCOC1=O (stereo in doubt) [Compound 232, 1-{[3-chloro-6-cyclopropyl-8-(trifluoromethyl)imidazo[1,2-a]pyridin-2-yl]carbonyl}-4-(2-oxo-1,3-oxazolidin-3-yl)-3-piperidinone] | 7.22 | 7.10
2 | O=C(c1nc2c(C(F)(F)F)cccn2c1Cl)N1CCC(N2CCCC2=O)CC1 [Compound 109, 1-(1-{[3-chloro-8-(trifluoromethyl)imidazo[1,2-a]pyridin-2-yl]carbonyl}-4-piperidinyl)-2-pyrrolidinone] | 4.42 | 4.55
3 | O=C(c1nc2c(C(F)(F)F)cc(Cl)cn2c1Cl)N1CCC(N2CCCC2=O)CC1 [Compound 110, 1-(1-{[3,6-dichloro-8-(trifluoromethyl)imidazo[1,2-a]pyridin-2-yl]carbonyl}-4-piperidinyl)-2-pyrrolidinone] | 5.76 | 6.10
4 | O=C(c1nc2c(C(F)(F)F)cccn2c1Cl)N1CCC(N2CCOC2=O)CC1 [Compound 111, 3-(1-{[3-chloro-8-(trifluoromethyl)imidazo[1,2-a]pyridin-2-yl]carbonyl}-4-piperidinyl)-1,3-oxazolidin-2-one] | ≤ 5.30 | 4.93
5 | O=C(c1nc2c(C(F)(F)F)cc(Cl)cn2c1Cl)N1CCC(N2CCOC2=O)CC1 [Compound 112, 3-(1-{[3,6-dichloro-8-(trifluoromethyl)imidazo[1,2-a]pyridin-2-yl]carbonyl)-4-piperidinyl)-1,3-oxazolidin-2-one] | 6.89 | 6.77
6 | O=C(c1nc2c(C(F)(F)F)cc(-c3ccncc3)cn2c1Cl)N1CCC(N2CCOC2=O)CC1 [Compound 113] | 6.13 | 5.02
7 | O=C(c1nc2c(C(F)(F)F)cc(-c3cccc(F)c3)cn2c1Cl)N1CCC(N2CCOC2=O)CC1 [Compound 114] | 7.52 | 6.51
8 | O=C(c1nc2c(C(F)(F)F)cc(-c3ccc(F)cc3)cn2c1Cl)N1CCC(N2CCOC2=O)CC1 [Compound 115, 3-(1-{[3-chloro-6-(4-fluorophenyl)-8-(trifluoromethyl)imidazo[1,2-a]pyridin-2-yl]carbonyl}-4-piperidinyl)-1,3-oxazolidin-2-one] | 7.22 | 5.43
9 | COc1ccccc1-c1cc(C(F)(F)F)c2nc(C(=O)N3CCC(N4CCOC4=O)CC3)c(Cl)n2c1 [Compound 116] | 6.44 | 5.13
10 | COc1cccc(-c2cc(C(F)(F)F)c3nc(C(=O)N4CCC(N5CCOC5=O)CC4)c(Cl)n3c2)c1 [Compound 117] | 6.33 | 5.60
11 | COc1ccc(-c2cc(C(F)(F)F)c3nc(C(=O)N4CCC(N5CCOC5=O)CC4)c(Cl)n3c2)cc1 [Compound 118] | 6.82 | 4.75
12 | O=C(c1nc2c(C(F)(F)F)cc(-c3ccsc3)cn2c1Cl)N1CCC(N2CCOC2=O)CC1 [Compound 119] | 8.00 | 7.30
13 | O=C(c1nc2c(C(F)(F)F)cc(-c3cccc4cccnc34)cn2c1Cl)N1CCC(N2CCOC2=O)CC1 [Compound 120] | 6.54 | 4.44
14 | O=C(c1nc2c(C(F)(F)F)cc(-c3ccccc3O)cn2c1Cl)N1CCC(N2CCOC2=O)CC1 [Compound 121] | 6.36 | 5.55
15 | O=C(c1nc2c(C(F)(F)F)cc(-c3cccc(O)c3)cn2c1Cl)N1CCC(N2CCOC2=O)CC1 [Compound 122] | 5.63 | 4.80
16 | O=C(c1nc2c(C(F)(F)F)cc(-c3ccc(O)cc3)cn2c1Cl)N1CCC(N2CCOC2=O)CC1 [Compound 123] | 7.52 | 6.42

Row | SMILES | pEC50 (HCV Genotype 1A Replicon) | pEC50 (HCV Genotype 1B Replicon)
17 | Cn1cc(-c2cc(C(F)(F)F)c3nc(C(=O)N4CCC(N5CCOC5=O)CC4)c(Cl)n3c2)cn1 [Compound 124] | 7.52 | 5.46
18 | CCn1cc(-c2cc(C(F)(F)F)c3nc(C(=O)N4CCC(N5CCOC5=O)CC4)c(Cl)n3c2)cn1 [Compound 125] | 7.05 | 4.87
19 | CC(C)Cn1cc(-c2cc(C(F)(F)F)c3nc(C(=O)N4CCC(N5CCOC5=O)CC4)c(Cl)n3c2)cn1 [Compound 126, 3-(1-{[3-chloro-6-[1-(2-methylpropyl)-1H-pyrazol-4-yl]-8-(trifluoromethyl)imidazo[1,2-a]pyridin-2-yl]carbonyl}-4-piperidinyl)-1,3-oxazolidin-2-one] | 4.86 | ≤ 4.30
20 | O=C(c1nc2c(C(F)(F)F)cc(C3CCCC3)cn2c1Cl)N1CCC(N2CCOC2=O)CC1 [Compound 127, 3-(1-{[3-chloro-6-cyclopentyl-8-(trifluoromethyl)imidazo[1,2-a]pyridin-2-yl]carbonyl}-4-piperidinyl)-1,3-oxazolidin-2-one] | 8.00 | 6.77
21 | O=C(c1nc2c(C(F)(F)F)cc(C3CCC3)cn2c1Cl)N1CCC(N2CCOC2=O)CC1 [Compound 128, 3-(1-{[3-chloro-6-cyclobutyl-8-(trifluoromethyl)imidazo[1,2-a]pyridin-2-yl]carbonyl}-4-piperidinyl)-1,3-oxazolidin-2-one] | 8.00 | 7.52
22 | CCCc1cc(C(F)(F)F)c2nc(C(=O)N3CCC(N4CCOC4=O)CC3)c(Cl)n2c1 [Compound 129, 3-(1-{[3-chloro-6-propyl-8-(trifluoromethyl)imidazo[1,2-a]pyridin-2-yl]carbonyl}-4-piperidinyl)-1,3-oxazolidin-2-one] | 7.70 | 6.92
23 | CC(C)Cc1cc(C(F)(F)F)c2nc(C(=O)N3CCC(N4CCOC4=O)CC3)c(Cl)n2c1 [Compound 130, 3-(1-{[3-chloro-6-(2-methylpropyl)-8-(trifluoromethyl)imidazo[1,2-a]pyridin-2-yl]carbonyl}-4-piperidinyl)-1,3-oxazolidin-2-one] | 7.70 | 7.30
24 | CCCCc1cc(C(F)(F)F)c2nc(C(=O)N3CCC(N4CCOC4=O)CC3)c(Cl)n2c1 [Compound 131] | 8.00 | 6.15
25 | COc1cc(C(F)(F)F)c2nc(C(=O)N3CCC(N4CCOC4=O)CC3)c(Cl)n2c1 [Compound 132, 3-(1-{[3-chloro-6-(methyloxy)-8-(trifluoromethyl)imidazo[1,2-a]pyridin-2-yl]carbonyl}-4-piperidinyl)-1,3-oxazolidin-2-one] | 6.89 | 6.68
26 | Cc1ccc(-c2cc(C(F)(F)F)c3nc(C(=O)N4CCC(N5CCOC5=O)CC4)c(Cl)n3c2)o1 [Compound 133] | 6.96 | 5.43
27 | O=C(c1nc2c(C(F)(F)F)cc(C3CCCO3)cn2c1Cl)N1CCC(N2CCOC2=O)CC1 (stereo not shown) [Compound 134, 3-(1-{[3-chloro-6-(tetrahydro-2-furanyl)-8-(trifluoromethyl)imidazo[1,2-a]pyridin-2-yl]carbonyl}-4-piperidinyl)-1,3-oxazolidin-2-one] | 6.49 | 5.66
28 | CCOc1cc(C(F)(F)F)c2nc(C(=O)N3CCC(N4CCOC4=O)CC3)c(Cl)n2c1 [Compound 135, 3-(1-{[3-chloro-6-(ethyloxy)-8-(trifluoromethyl)imidazo[1,2-a]pyridin-2-yl]carbonyl}-4-piperidinyl)-1,3-oxazolidin-2-one] | 7.15 | 6.66
29 | O=C(c1nc2c(C(F)(F)F)cc(-c3cccnc3)cn2c1Cl)N1CCC(N2CCOC2=O)CC1 [Compound 136, 3-(1-{[3-chloro-6-(3-pyridinyl)-8-(trifluoromethyl)imidazo[1,2-a]pyridin-2-yl]carbonyl}-4-piperidinyl)-1,3-oxazolidin-2-one] | 6.49 | 5.74
30 | O=C(c1nc2c(C(F)(F)F)cc(C3CCOC3)cn2c1Cl)N1CCC(N2CCOC2=O)CC1 (stereo not shown) [Compound 137, 3-(1-{[3-chloro-6-(tetrahydro-3-furanyl)-8-(trifluoromethyl)imidazo[1,2-a]pyridin-2-yl]carbonyl}-4-piperidinyl)-1,3-oxazolidin-2-one] | 6.51 | 5.90
31 | CC(C)Oc1cc(C(F)(F)F)c2nc(C(=O)N3CCC(N4CCOC4=O)CC3)c(Cl)n2c1 [Compound 138, 3-(1-{[3-chloro-6-[(1-methylethyl)oxy]-8-(trifluoromethyl)imidazo[1,2-a]pyridin-2-yl]carbonyl}-4-piperidinyl)-1,3-oxazolidin-2-one] | 6.55 | 6.38
32 | O=C(c1nc2c(C(F)(F)F)cc(-n3ccnc3)cn2c1Cl)N1CCC(N2CCOC2=O)CC1 [Compound 139, 3-(1-{[3-chloro-6-(1H-imidazol-1-yl)-8-(trifluoromethyl)imidazo[1,2-a]pyridin-2-yl]carbonyl}-4-piperidinyl)-1,3-oxazolidin-2-one] | 5.58 | ≤ 5.30
